Measurements published in paper PMC9562282, “Reaction of Thiosulfate Dehydrogenase with a Substrate Mimic Induces Dissociation of the Cysteine Heme Ligand Giving Insights into the Mechanism of Oxidative Catalysis” (Journal of the American Chemical Society, 2022).

Biological target: T1, CjTsdA (Campylobacter jejuni thiosulfate dehydrogenase) (Campylobacter jejuni, UniProt A0A5Y8VWW6)
T1 construct: diheme c-type cytochrome (two covalent c hemes), mass 37,202 Da by LCMS with unmodified Cys138; host and tags only in supplement
Test: LCMS of intact protein (supported by absorbance and MCD spectroscopy)
Type: binding
Conditions: covalent; cysteinyl-138 sulfonate adduct; 1.5 mM sulfite, anaerobic 50 mM HEPES, 50 mM NaCl, pH 7, 20 °C; ferricyanide as oxidant

## O=S(O)O [sulfite]
  LCMS of intact protein (supported by absorbance and MCD spectroscopy): sulfite is shown to bind to the active site of CjTsdA
